Source: article PMC4166935, “Toward Biophysical Probes for the 5-HT3 Receptor: Structure−Activity Relationship Study of Granisetron Derivatives” (Journal of Medicinal Chemistry, 2010)
Where two headings read alike, the source gives them in different places.

Assays:
[1] = target: T1, human 5-HT3A receptor (Homo sapiens, UniProt P46098); experiment: [3H]granisetron competition binding, HEK293 cell membranes stably expressing h5-HT3AR
T1 construct: expressed in transfected cells; cell membranes
T1 sequence (P46098 24-478): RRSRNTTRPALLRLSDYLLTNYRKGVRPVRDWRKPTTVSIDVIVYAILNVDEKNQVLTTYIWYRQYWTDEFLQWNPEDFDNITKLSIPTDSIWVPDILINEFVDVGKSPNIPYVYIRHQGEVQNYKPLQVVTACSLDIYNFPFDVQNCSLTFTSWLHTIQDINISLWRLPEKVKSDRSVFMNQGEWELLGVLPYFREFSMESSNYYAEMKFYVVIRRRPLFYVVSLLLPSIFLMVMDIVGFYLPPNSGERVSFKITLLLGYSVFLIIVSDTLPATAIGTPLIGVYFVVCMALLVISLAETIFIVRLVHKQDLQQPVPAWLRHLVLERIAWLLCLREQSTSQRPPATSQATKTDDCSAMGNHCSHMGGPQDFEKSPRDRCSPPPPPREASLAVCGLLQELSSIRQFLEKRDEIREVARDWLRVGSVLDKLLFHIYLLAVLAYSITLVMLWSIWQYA
Method: Materials and cell culture maintenance
All cell culture reagents were obtained from Gibco BRL (Paisley, UK), except foetal calf serum which was from Labtech International (Ringmer, UK). [3H]granisetron (63.5 Ci/mmol) was from PerkinElmer (Boston, Massachusetts, USA).
Human embryonic kidney (HEK)-293 cells were maintained on 90 mm tissue culture plates at 37°C and 7% CO2 in a humidified atmosphere. Cells were cultured in DMEM:F12 (Dulbecco’s modified Eagle medium/nutrient mix F12 (1:1)) with GlutaMAX™ I containing 10% foetal calf serum and passaged when 90% confluent.
Receptor expression and radioligand binding
HEK-293 cells stably expressing the human 5-HT3A subunit (accession number: P46098) were scraped into 1 mL of ice-cold HEPES buffer (10 mM, pH 7.4) and frozen at –20°C.
After thawing, they were spun at 13,000 rpm for 1 min, resuspended and 50 μg of cell […]
Competition binding (12 points) was performed on at least three separate plates of cells.
Nonspecific binding was determined using 10 μM quipazine or other competitive antagonist.
Reactions were incubated for at least 1 h at 4°C and terminated by vacuum filtration, using a Brandel cell harvester, onto GF/B filters presoaked in 0.3% polyethyleneimine. Radioactivity was determined by scintillation counting using a Beckman LS6000SC (Fullerton, CA, USA).
Competition binding data were analyzed by iterative curve fitting (GraphPad Prism v3.02, GraphPad Software, San Diego, CA, USA), according to the equation: […]
where [L] is the concentration of ligand present, BL is the binding in the presence of ligand […]
the concentration of L which gives a binding equal to (Bmax + Bmin)/2, and nH is the Hill coefficient. Ki values were calculated from IC50 values using the Cheng–Prusoff equation: […]
where Ki is the equilibrium dissociation constant for binding of the unlabelled antagonist, [L] is the concentration of radioligand and Kd is the equilibrium dissociation constant of the radioligand. Values are presented as mean ± SEM.

[2] = system: 5-HT3 receptor; set-up: method as in earlier work; conditions: cited from earlier work
[3] = target: T2, h5-HT3AR in HEK293 cells (Homo sapiens, UniProt P46098); experiment: Confocal labeling of HEK293 cells stably transfected with h5-HT3AR with fluorescent probe 16; type: cell-based; conditions: 10 μM quipazine with 10 nM 16 for 10 min
T2 sequence (P46098 24-478): T1 sequence (P46098 24-478)
Method: To confirm the validity of this hypothesis, we attached a BODIPY FL fluorophore at this position (Scheme 3) to create fluorescent analogue 16 (BFL-GR). […] Similar images have previously been obtained using fluorescein, rhodamine 6G, and cyanine Cy5 dyes attached via a linker at a similar position of ondansetron, another high-affinity 5-HT3AR antagonist.[30]
Figure 3 Labeling of HEK293 cells stably transfected with h5-HT3AR with 16. Cells were incubated in 10 nM 16 for 10 min with (B) or without (A) 10 μM quipazine, washed, mounted, and then observed in a confocal microscope.[31] […] Unlabeled areas are nuclei. […] Scale bar represents 20 μm.

[4] = Ki (nM) mean ± SEM, competition with 1 nM [3H]granisetron, HEK293 cell membranes stably expressing h5-HT3AR
[5] = competition with 1 nM [3H]granisetron, HEK293 cell membranes stably expressing h5-HT3AR, read-out: Ki (nM) mean ± SEM

## COc1cccc2c1c(C(=O)NC1CC3CCCC(C1)N3C)nn2C (stereo not drawn) [2b]
[1]
  Ki: 26.3 ± 7.4 nM

## CN1C2CCCC1CC(NC(=O)c1nn(C)c3cccc(OCc4ccccc4)c13)C2 (stereo not drawn) [2c]
[1]; [4]
  Ki: 375 ± 61 nM

## CN1C2CCCC1CC(NC(=O)c1nn(C)c3ccc(OCc4ccccc4)cc13)C2 (stereo not drawn) [3c]
[1]; [5]
  Ki: 3030 ± 956 nM

## CN1C2CCCC1CC(NC(=O)c1nn(C)c3cc(OCc4ccccc4)ccc13)C2 (stereo not drawn) [4c]
[1]; [5]
  Ki: 749 ± 183 nM

## CN1C2CCCC1CC(NC(=O)c1nn(C)c3c(O)cccc13)C2 (stereo not drawn) [5a]
[2]
  potency compared to granisetron: as potent as granisetron

## COc1cccc2c(C(=O)NC3CC4CCCC(C3)N4C)nn(C)c12 (stereo not drawn) [5b]
[1]
  Ki: 71.1 ± 8 nM

## CN1C2CCCC1CC(NC(=O)c1nn(C)c3c(OCc4ccccc4)cccc13)C2 (stereo not drawn) [5c]
[1]; [4]
  Ki: 0.23 ± 0.03 nM
[1]; comparison with granisetron (1)
  affinity for 5-HT3AR compared to 1: equal or exceed the affinity measured for 1

## c1ccc2nc(N3CCNCC3)ccc2c1 [Quipazine, quipazine]
[3]
  displacement of 16 from its binding sites: has displaced 16 from its binding sites
